Experimental data from the supplement of paper PMC10307832.

Columns and labels:
Experiment in all cases: relative viability (nuclei count vs DMSO), 5 days (fraction); higher = more cells survive
Idelalisib + Lapatinib = compound: CC[C@H](Nc1ncnc2[nH]cnc12)c1nc2cccc(F)c2c(=O)n1-c1ccccc1 [Idelalisib] + CS(=O)(=O)CCNCc1ccc(-c2ccc3ncnc(Nc4ccc(OCc5cccc(F)c5)c(Cl)c4)c3c2)o1 [Lapatinib] (partner 2 µM)
Procedure, shortened: (§1)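 Nuclei were stained with Hoechst during a one-step fixation (final 0.05% Triton X-100, 1% formaldehyde, 1 ug/ml Hoechst) carried out 5 days after dosing, then counted on 4× images. The cells, lung cancer lines in 1536-well plates, had been dosed by pin tool the day after seeding with one drug alone or a fixed anchor-drug dose plus five library-drug doses (not always all listed) in √10 steps. Relative viability is the nuclei count in treated wells divided by that in vehicle wells, and each value is the median of duplicate plates.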

Idelalisib + Decitabine = compound: CC[C@H](Nc1ncnc2[nH]cnc12)c1nc2cccc(F)c2c(=O)n1-c1ccccc1 [Idelalisib] + Nc1ncn([C@H]2C[C@H](O)[C@@H](CO)O2)c(=O)n1 [Decitabine] (partner 2 µM)
Procedure, shortened: as §1

Pemetrexed + Trametinib = compound: Nc1nc2[nH]cc(CCc3ccc(C(=O)N[C@@H](CCC(=O)O)C(=O)O)cc3)c2c(=O)[nH]1 [Pemetrexed] + CC(=O)Nc1cccc(-n2c(=O)n(C3CC3)c(=O)c3c(Nc4ccc(I)cc4F)n(C)c(=O)c(C)c32)c1 [Trametinib] (partner 0.02 µM)
Procedure, shortened: as §1

Pemetrexed + Crizotinib = compound: Nc1nc2[nH]cc(CCc3ccc(C(=O)N[C@@H](CCC(=O)O)C(=O)O)cc3)c2c(=O)[nH]1 [Pemetrexed] + C[C@@H](Oc1cc(-c2cnn(C3CCNCC3)c2)cnc1N)c1c(Cl)ccc(F)c1Cl [Crizotinib] (partner 1 µM)
Procedure, shortened: as §1

For PC-14, the relative viability (Idelalisib + Lapatinib; first compound 0.04 µM) was 0.329, the relative viability (Idelalisib + Lapatinib; first compound 0.1265 µM) was 0.299 and the relative viability (Idelalisib + Lapatinib; first compound 0.4 µM) was 0.309. The relative viability (Idelalisib + Lapatinib; first compound 1.265 µM) was 0.306, the relative viability (Idelalisib + Lapatinib; first compound 4 µM) was 0.252 and the relative viability (Idelalisib + Decitabine; first compound 0.04 µM) was 0.295. It also gave a relative viability (Idelalisib + Decitabine; first compound 0.1265 µM) of 0.194, a relative viability (Idelalisib + Decitabine; first compound 0.4 µM) of 0.215 and a relative viability (Idelalisib + Decitabine; first compound 1.265 µM) of 0.166. The relative viability (Idelalisib + Decitabine; first compound 4 µM) was 0.209, the relative viability (Pemetrexed + Trametinib; first compound 0.002 µM) was 0.681 and the relative viability (Pemetrexed + Trametinib; first compound 0.006325 µM) was 0.651. For the same cell line, the relative viability (Pemetrexed + Trametinib; first compound 0.02 µM) was 0.805, the relative viability (Pemetrexed + Trametinib; first compound 0.06325 µM) was 0.198 and the relative viability (Pemetrexed + Trametinib; first compound 0.2 µM) was 0.123. For the same cell line, the relative viability (Pemetrexed + Crizotinib; first compound 0.002 µM) was 0.86, the relative viability (Pemetrexed + Crizotinib; first compound 0.006325 µM) was 0.888 and the relative viability (Pemetrexed + Crizotinib; first compound 0.02 µM) was 0.838. For the same cell line, the relative viability (Pemetrexed + Crizotinib; first compound 0.06325 µM) was 0.709 and the relative viability (Pemetrexed + Crizotinib; first compound 0.2 µM) was 0.207.

With COR-L23 the relative viability (Idelalisib + Lapatinib; first compound 0.04 µM) was 1.09, the relative viability (Idelalisib + Lapatinib; first compound 0.1265 µM) was 1.14 and the relative viability (Idelalisib + Lapatinib; first compound 0.4 µM) was 0.711. The relative viability (Idelalisib + Lapatinib; first compound 1.265 µM) was 1.29, the relative viability (Idelalisib + Lapatinib; first compound 4 µM) was 0.926 and the relative viability (Idelalisib + Decitabine; first compound 0.04 µM) was 0.489. For the same cell line, the relative viability (Idelalisib + Decitabine; first compound 0.1265 µM) was 0.49, the relative viability (Idelalisib + Decitabine; first compound 0.4 µM) was 0.46 and the relative viability (Idelalisib + Decitabine; first compound 1.265 µM) was 0.471. The relative viability (Idelalisib + Decitabine; first compound 4 µM) was 0.401, the relative viability (Pemetrexed + Trametinib; first compound 0.002 µM) was 0.581 and the relative viability (Pemetrexed + Trametinib; first compound 0.006325 µM) was 0.569. For the same cell line, the relative viability (Pemetrexed + Trametinib; first compound 0.02 µM) was 0.733, the relative viability (Pemetrexed + Trametinib; first compound 0.06325 µM) was 0.206 and the relative viability (Pemetrexed + Trametinib; first compound 0.2 µM) was 0.152. It also gave a relative viability (Pemetrexed + Crizotinib; first compound 0.002 µM) of 0.589, a relative viability (Pemetrexed + Crizotinib; first compound 0.006325 µM) of 0.631 and a relative viability (Pemetrexed + Crizotinib; first compound 0.02 µM) of 0.636. The relative viability (Pemetrexed + Crizotinib; first compound 0.06325 µM) was 0.26 and the relative viability (Pemetrexed + Crizotinib; first compound 0.2 µM) was 0.14.

H3255 was tested, and the relative viability (Idelalisib + Lapatinib; first compound 0.04 µM) was 0.297, the relative viability (Idelalisib + Lapatinib; first compound 0.1265 µM) was 0.283 and the relative viability (Idelalisib + Lapatinib; first compound 0.4 µM) was 0.258. For the same cell line, the relative viability (Idelalisib + Lapatinib; first compound 1.265 µM) was 0.233, the relative viability (Idelalisib + Lapatinib; first compound 4 µM) was 0.203 and the relative viability (Idelalisib + Decitabine; first compound 0.04 µM) was 0.902. For the same cell line, the relative viability (Idelalisib + Decitabine; first compound 0.1265 µM) was 0.623, the relative viability (Idelalisib + Decitabine; first compound 0.4 µM) was 0.538 and the relative viability (Idelalisib + Decitabine; first compound 1.265 µM) was 0.721. For the same cell line, the relative viability (Idelalisib + Decitabine; first compound 4 µM) was 0.512, the relative viability (Pemetrexed + Trametinib; first compound 0.002 µM) was 0.517 and the relative viability (Pemetrexed + Trametinib; first compound 0.006325 µM) was 0.581. The relative viability (Pemetrexed + Trametinib; first compound 0.02 µM) was 0.673, the relative viability (Pemetrexed + Trametinib; first compound 0.06325 µM) was 0.55 and the relative viability (Pemetrexed + Trametinib; first compound 0.2 µM) was 0.515. The relative viability (Pemetrexed + Crizotinib; first compound 0.006325 µM) was 0.952, the relative viability (Pemetrexed + Crizotinib; first compound 0.02 µM) was 0.926 and the relative viability (Pemetrexed + Crizotinib; first compound 0.06325 µM) was 0.864. The relative viability (Pemetrexed + Crizotinib; first compound 0.2 µM) was 0.608.

NCI-H2126 showed a relative viability (Idelalisib + Lapatinib; first compound 0.04 µM) of 0.808, a relative viability (Idelalisib + Lapatinib; first compound 0.1265 µM) of 0.785 and a relative viability (Idelalisib + Lapatinib; first compound 0.4 µM) of 0.634. For the same cell line, the relative viability (Idelalisib + Lapatinib; first compound 1.265 µM) was 0.764, the relative viability (Idelalisib + Lapatinib; first compound 4 µM) was 0.728 and the relative viability (Idelalisib + Decitabine; first compound 0.04 µM) was 0.545. The relative viability (Idelalisib + Decitabine; first compound 0.1265 µM) was 0.56, the relative viability (Idelalisib + Decitabine; first compound 0.4 µM) was 0.532 and the relative viability (Idelalisib + Decitabine; first compound 1.265 µM) was 0.548. It also gave a relative viability (Idelalisib + Decitabine; first compound 4 µM) of 0.524, a relative viability (Pemetrexed + Trametinib; first compound 0.002 µM) of 0.55 and a relative viability (Pemetrexed + Trametinib; first compound 0.006325 µM) of 0.522. The relative viability (Pemetrexed + Trametinib; first compound 0.02 µM) was 0.591, the relative viability (Pemetrexed + Trametinib; first compound 0.06325 µM) was 0.567 and the relative viability (Pemetrexed + Trametinib; first compound 0.2 µM) was 0.533. For the same cell line, the relative viability (Pemetrexed + Crizotinib; first compound 0.002 µM) was 0.967, the relative viability (Pemetrexed + Crizotinib; first compound 0.006325 µM) was 0.96 and the relative viability (Pemetrexed + Crizotinib; first compound 0.02 µM) was 1.02. The relative viability (Pemetrexed + Crizotinib; first compound 0.06325 µM) was 1.03 and the relative viability (Pemetrexed + Crizotinib; first compound 0.2 µM) was 0.965.
